# From PMC4644980, “The FDA-approved natural product dihydroergocristine reduces the production of the Alzheimer’s disease amyloid-β peptides” (Scientific Reports, 2015)
# Legend:
# [1] = tested on: γ-secretase (APP-CTF processing) in HEK293 cells; assay: Western blot of endogenous APP-FL and APP-CTF in HEK293 cells; assay type: cell-based; details: 24 h
# Procedure: (§3) The levels of β-actin were used as equal loading controls. […] The levels of β-actin served as equal loading controls.
# (§4) Western Blot analysis of full-length APP, APP-CTFs, Notch1-NICD and γ-secretase components was carried out according to the procedures described in the Supplementary information[31].
# [2] = tested on: Aβ production in HEK293 cells; assay: Aβ total ELISA of media from HEK293 cells; assay type: cell-based
# Procedure: (§1) The levels of β-actin were used as equal loading controls. […] The Aβ data are expressed as a percentage of the control value and presented as the means ± sd. […] Fibroblast cells from an AD patient carrying the PS1 missense mutation A246E were treated with various compounds, and the levels of APP-FL, APP-CTF and β-actin, as well as Aβ, were measured as described above. The Aβ data are expressed as a percentage of the control value and presented as the means ± sd. (n = 3). […] The levels of β-actin served as equal loading controls. The densitometric quantifications for the Western Blots are shown in Supplementary Fig. S2. For full blots, please see Supplementary Fig. S9.
# (§2) Aβ1-x peptides secreted in the cell media were quantitatively measured by ELISA (IBL, Gunma, Japan) according to the standard protocol from the manufacturer. Aβ40 and Aβ42 generated in the C100-Flag γ-secretase assays stopped with 0.5% SDS (final concentration) were quantified with the human Beta Amyloid or [1–42] colorimetric ELISA kit, respectively.
# [3] = tested on: endogenous γ-secretase in fibroblast cells from an AD patient; assay: Western blot of APP-CTF in fibroblast cells from an AD patient (PS1 A246E); assay type: cell-based, human; details: dose series
# Procedure: Fibroblast cells from an AD patient carrying the PS1 missense mutation A246E were treated with various compounds, and the levels of APP-FL, APP-CTF and β-actin, as well as Aβ, were measured as described above. […] (n = 3). […] The levels of β-actin served as equal loading controls.
# as §4
# [4] = tested on: Aβ production in fibroblast cells from an AD patient; assay: Aβ total ELISA of media from fibroblast cells from an AD patient (PS1 A246E); assay type: cell-based, human
# Procedure: as §1, §2
# [5] = tested on: human Notch1 extracellular truncation (NEXT) cleavage by γ-secretase; assay: cleavage of human Notch1 NEXT (NICD Western blot) in HEK293 cells; assay type: cell-based
# Procedure: as §3, §4
# [6] = tested on: γ-secretase subunits (mNCT, PS1-NTF); assay: Western blot of γ-secretase subunits in HEK293 or fibroblast cells; assay type: cell-based
# Procedure: for 10 min before adding 25 µl of the stop solution. The fluorescence was monitored with a microplate reader (emission at 590 nm after excitation at 560 nm).
# Western blot and antibodies
# WT HEK293 or fibroblast cells were collected and lysed in 1% Nonidet P-40-HEPES buffer, and equal amounts of proteins [normalized by BCA (Pierce)] were separated by SDS-PAGE onto a 12% Tris-glycine gel, transferred onto a PVDF membrane (Bio-Rad, USA) and further probed with antibody CT15 (for APP/APP-CTFs, 1:2000, […]
# (1:1000; Abcam, Cambridge, MA, USA) for PS1-NTF, UD-1 (for Pen-2, 1:500; a gift of Dr. Helena Karlström, Karolinska Institute, Sweden), NCT164 (for NCT, 1:1000; BD Bioscience, Bedford, MA, USA) as well as with an antibody for β-actin (1:2000, Abmart). For the analysis of Notch NICD, cell extracts were separated by SDS-PAGE onto a 10% Tris-glycine gel, transferred onto a PVDF membrane and blotted for NICD with an anti-Notch Ab1744 antibody (for the free N-terminus of NICD, 1:500, Cell Signaling Technology, Beverly, MA, USA).
# Samples from in vitro γ-secretase activity assays were run on 16% Tricine-SDS-PAGE gels and transferred onto PVDF to detect Aβ and AICD-Flag with 6E10 (1:1000, Covance, Berkeley, CA, USA) and CT15 antibodies (1:5000, Sigma-Aldrich), […]
# [7] = molecular target: γ-secretase (Homo sapiens, UniProt P49768+Q92542); assay: cell-based luciferase reporter assay for γ-secretase inhibition (T100 cells); parameters: endogenous in cells; host or cells: T-REx HeLa cells (T100) stably transfected with the substrate C99-Gal4-VP16 and a luciferase reporter; details: 24 h, read-out: IC50, inhibition of APP-C99 processing
# Procedure: To identify natural product-based bioactive inhibitors of γ-secretase, we screened 417 natural products by using a cell-based luciferase reporter assay for γ-secretase inhibition (T100, see Methods), which we recently developed in TREx HeLa cells according to the methodology described in ref. [17]. […] Thus, this assay is sufficiently sensitive to detect the inhibitory effects of 100 nM DAPT on cellular γ-secretase activity. Additionally, this new cell-based assay tolerated up to 2% DMSO, which is a great advantage when screening inhibitors in a high-throughput format.
# T-REx-HeLa cells (T100) stably overexpressing C99-Gal4-VP16 and luciferase were generated according to the method described in refs [17],[30]. For details, see Supplementary Information.
# Cell-based γ-secretase assays were performed using the T100 cell line according to the methods detailed in ref. [30] (for details, see Supplementary information). […]
# concentrations of substrate at 37 °C for 4 h, after which the enzymatic reactions were stopped by adding 0.5% SDS (final concentration). The samples were analyzed by Western Blot for AICD-Flag or Aβ. […]
smiles,measurement,setting,value
"C[C@H](NC(=O)Cc1cc(F)cc(F)c1)C(=O)N[C@H](C(=O)OC(C)(C)C)c1ccccc1 [DAPT, N-[N-(3,5-difluorophenylacetyl)-L-alanyl-]-(S)-phenylglycine-t-butyl ester]",accumulation of the carboxy-terminal fragments of APP (APP-CTFs),[1],dose-dependent accumulation
same,total Aβ levels,[2],markedly reduced
same,accumulation of APP-CTFs,[3],dose-dependent accumulation
same,total Aβ levels,[4],markedly reduced
same,preference for APP-based versus Notch-based substrate,[5]; HEK293 cells overexpressing hAPP or Notch1-NEXT,showed no preference
same,production of intracellular human NICD,"[5]; HEK293 cells overexpressing human NEXT, 1 μM",completely blocked
same,"assembly and maturation of the protease complex (mNCT, PS1-NTF)",[6],not altered
same,IC50,[7],~200 nM
